# Measured values from patent US20100172889A1, “DEGRADABLE BIOMOLECULE COMPOSITIONS” (priority 2008, published 2010).
# Tested on: cellulase C
# Settings: PHMB present in lyophilized cellulose film with cellulase C
# Procedure: Two test materials (A and B) were prepared. Material A is a lyophilized cellulose film with cellulase C, and material B is a lyophilized cellulose film with cellulase C plus antiseptic Polyhexamethylene Biguanide (PHMB). Lyophilized cellulose samples A and B were incubated under conditions 1 and 2 for one month. Using media of tryptic soy agar, the samples were put in the solution to perform enzymatic degradation. On the 2nd, 8th, and 14th day, the degrading solution was taken out and plated on the agar media. The agar media plates were incubated for one month according to condition 3.
substance,measurement,value
Polyhexamethylene Biguanide [PHMB],reduction in cellulase enzyme activity,no observable reduction in cellulase enzyme activity
